Patent publication US6921531B2, “Administering bifunctional molecules containing a drug moiety and presenter protein ligand for therapy” (The Board of Trustees of the Leland Stanford Junior …, priority 1998, dated 2005)
Entries after “also recorded” stand apart in the source; their conditions may differ.

Key:
FKBP12 = molecular target: T1, FKBP12 (Homo sapiens, UniProt P62942); experiment: Binding constants (Kd) for FKBP12, isothermal titration calorimetry
T1 construct: GST (N, cleaved yes); made in house
T1 sequence (P62942 whole entry, species assumed): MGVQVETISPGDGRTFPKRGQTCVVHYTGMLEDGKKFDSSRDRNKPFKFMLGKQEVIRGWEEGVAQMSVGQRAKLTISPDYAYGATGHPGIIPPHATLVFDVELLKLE
Excerpt: SLF was synthesized according to the procedures of Holt et al. [J. Am. Chem. Soc. 1993, 115, 9925]. SLF was coupled to the N-terminus of the resin-bound protected pYEEI peptide using PyBOP. The heterodimeric SLFpYEEI was deprotected and cleaved from the Novasyn TGT resin (Calbiochem-Novabiochem, San Diego, Ca.) using 25% trifluoroacetic acid and 2.5% triisopropyl silane in methylene chloride and the desired product was isolated using reverse phase HPLC. C. […] Recombinant FKBP12 was expressed as a GST fusion protein and bound to glutathione beads (Pharmacia). Using thrombin (Sigma) to cleave the GST-FKBP12 fusion protein at a thrombin cleavage site in the linker between GST and FKBP12, recombinant FKBP12 could be released from the glutathione beads where GST remained bound. FKBP52 was expressed with a tag of six histidine residues at its N-terminus (pET28c expression vector, Novagen). The recombinant protein was bound via the histidine tag to Ni^2+ NTA agarose beads (Qiagen), washed extensively and eluted with imidazole. […]
SLFpYEEI and FKpYEEI are bifunctional molecules that can bind FKBP12 and FKBP52 as well as the Fyn SH2 domain (FIG. 2). The binding constants (Kd values) of the bifunctional molecules for the three proteins were measured using isothermal titration calorimetry (ITC) (Table 1).

Fyn SH2 domain = molecular target: T2, Fyn SH2 domain (Homo sapiens, UniProt P06241); experiment: Competition binding assay of radioactive Fyn SH2 domain to pYEEI beads; conditions: for Effect of FKBP12 on affinity for the Fyn SH2 domain: 1.0 µM ligand plus FKBP12 (0.25-4.0 µM or 2.0 µM)
T2 construct: The Fyn, Lck and PLC SH2 domains were expressed in bacteria as GST fusion proteins; GST (cleaved yes); made in house; host or cells: bacteria
T2 sequence (P06241 149-246 limits assumed): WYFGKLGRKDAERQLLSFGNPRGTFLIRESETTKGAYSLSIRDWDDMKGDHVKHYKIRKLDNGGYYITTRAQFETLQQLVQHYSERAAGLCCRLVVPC
Excerpt: The pYEEI peptide was coupled to Affi-Gel 10 beads (Biorad) via its amino-group. The Fyn, Lck and PLC SH2 domains were expressed in bacteria as GST fusion proteins. The linker between the GST protein and the SH2 domain contained a thrombin cleavage site and a protein kinase A (PKA) phosphorylation site. The fusion protein on glutathione beads was radioactively labeled at the PKA phosphorylation site using PKA (Sigma). After extensive washing of the beads, the radioactive SH2 domain was released by cleavage with thrombin (Sigma). In a typical binding assay, 7.5 L of a 1:1 peptide bead slurry were incubated with the radioactive SH2 domain (200 nM) for 2 hours in 100 L of binding buffer (20 mM Tris pH7.2; 150 mM NaCl). In order to separate the radioactive protein bound to the beads, the binding reaction was transfered into a PCR tube (USA Scientific Plastic), whose bottom had been punctured with a 26gauge needle. The PCR tube was placed in a 0.5 mL Eppendorf tube which in turn was placed in a regular 1.5 mL Eppendorf tube. The tubes were spun for 1 second at maximal speed in an Eppendorf centrifuge resulting in the separation of the beads remaining in the PCR tube and the supernatant, which was collected in the 0.5 ml Eppendorf tube. The beads were resuspended in […] PBS and the radioactivity was counted in a liquid scintillation counter after addition of 3 ml scintillation fluid. The radioactivity remaining in the 100 L supernatant was counted in the same way. It was determined that under the conditions described 65% Fyn, 25% PLC and 15%Lck SH2 domain were bound to the beads. By increasing the amount of beads, up to 80% Fyn, 40% PLC and 25% Lck could be bound. These amounts reflect the active fraction of SH2 domains in the different protein preparations.
In order to determine the relative affinity of the SH2 domains for FKpYEEI or SLFpYEEI alone and FKpYEEI or SLFpYEEI bound to FKBP12 and FKBP52, the following competition assay was used. Radioactive SH2 domains were incubated with pYEEI peptide beads and FKpYEEI or SLFpYEEI in the presence or absence of the respective FKBP proteins. FKpYEEI and FKpYEEI/FKBP as well as SLFpYEEI and SLFpYEEI/FKBP compete for binding of the SH2 domains with the peptide beads. The higher the affinity of the FKpYEEI or SLFpYEEI ligand in the supernatant, the less SH2 domain is bound to the peptide beads (FIG. 3).
Using the competition binding assay described above, FKpYEEI was added to peptide beads and the Fyn SH2 domain in the presence of increasing concentrations of FKBP52 (FIG. 4). In this assay, in 100 L binding reactions, radioactively labeled Fyn SH2 domain (200 nM) was incubated with 7.5 L of a 1:1 pYEEI bead slurry. No FKpYEEI, 1.0 M FKpYEEI or 1.0 M FKpYEEI plus increasing concentrations of FKBP52 (0.25-4.0 M) were added. The binding reactions were rotated at room temperature for 2 hours. The supernatant was separated from the beads by spinning the binding reactions in punctured PCR tubes for 1 sec in an Eppendorf centrifuge at maximal speed. The beads were resuspended in 100 1 PBS and the radioactivity bound to the beads was counted in a liquid scintillation vial for 30 sec. The radioactivity bound to the beads in the presence of only the Fyn SH2 domain was plotted as 100% of maximal Fyn SH2 domain binding to pYEEI beads. The radioactivity bound in the presence of FKpYEEI and FKBP52 was calculated as the percentage of maximal Fyn SH2 domain binding. Every binding reaction was done in triplicate. The data points reflect the average of the three binding reactions. The error bars indicate the standard error.
In this assay, in 100 L binding reactions, radioactively labeled Fyn SH2 domain (200 nM) was incubated with 7.5 L of a 1:1 pYEEI bead slurry. […] The binding reactions were rotated at room temperature for 2 hours, centrifuged and analysed as described above. […]

SMILES: CC[C@H](C)[C@H](NC(=O)[C@H](CCC(=O)O)NC(=O)[C@H](CCC(=O)O)NC(=O)[C@H](Cc1ccc(OP(=O)(O)O)cc1)NC(=O)OCC[C@@H]1/C=C(\C)C[C@H](C)C[C@H](OC)[C@H]2O[C@@](O)(C(=O)C(=O)N3CCCC[C@H]3C(=O)O[C@H](/C(C)=C/[C@@H]3CC[C@@H](O)[C@H](OC)C3)[C@H](C)[C@@H](O)CC1=O)[C@H](C)C[C@@H]2OC)C(=O)O [FKpYEEI]
- Kd (FKBP12): 0.045 µM
- Effect of FKBP12 on affinity for the Fyn SH2 domain (Fyn SH2 domain): does not enhance the binding affinity for the Fyn SH2 domain; also recorded: does not affect the affinity
- Effect of FKBP52 on affinity for the Fyn SH2 domain (Fyn SH2 domain; 1.0 M ligand plus FKBP52 0.25-4.0 M): higher affinity for the Fyn SH2 domain
- Enhancement of affinity in the context of FKBP52 in respect to pYEEI (Fyn SH2 domain; IC50 of FKpYEEI plus FKBP52 vs IC50 of pYEEI): 4.4 fold
- Factor of affinity enhancement for the Fyn SH2 domain in complex with FKBP52 (Fyn SH2 domain; IC50 with FKBP52 vs without): three

SMILES: CC[C@H](C)[C@H](NC(=O)[C@H](CCC(=O)O)NC(=O)[C@H](CCC(=O)O)NC(=O)[C@H](Cc1ccc(OP(=O)(O)O)cc1)NC(=O)COc1cccc([C@@H](CCc2ccc(OC)c(OC)c2)OC(=O)[C@@H]2CCCCN2C(=O)C(=O)C(C)(C)CC)c1)C(=O)O [SLFpYEEI]
- Kd (FKBP12): 0.061 µM
- Effect of FKBP12 on affinity for the Fyn SH2 domain (Fyn SH2 domain): reduced affinity for the Fyn SH2 domain; also recorded: reduced binding
- Factor of affinity reduction for the Fyn SH2 domain in complex with FKBP12 (Fyn SH2 domain; IC50 with FKBP12 vs without): six
